Data taken from BindingDB's records for patent US20250268854 (C/O Vesper Bio, 2025).

Columns and labels:
[1] = target: T1, Sortilin (Homo sapiens, UniProt Q99523); test: Rapid Kinetics Assay
T1 sequence (Q99523 whole entry): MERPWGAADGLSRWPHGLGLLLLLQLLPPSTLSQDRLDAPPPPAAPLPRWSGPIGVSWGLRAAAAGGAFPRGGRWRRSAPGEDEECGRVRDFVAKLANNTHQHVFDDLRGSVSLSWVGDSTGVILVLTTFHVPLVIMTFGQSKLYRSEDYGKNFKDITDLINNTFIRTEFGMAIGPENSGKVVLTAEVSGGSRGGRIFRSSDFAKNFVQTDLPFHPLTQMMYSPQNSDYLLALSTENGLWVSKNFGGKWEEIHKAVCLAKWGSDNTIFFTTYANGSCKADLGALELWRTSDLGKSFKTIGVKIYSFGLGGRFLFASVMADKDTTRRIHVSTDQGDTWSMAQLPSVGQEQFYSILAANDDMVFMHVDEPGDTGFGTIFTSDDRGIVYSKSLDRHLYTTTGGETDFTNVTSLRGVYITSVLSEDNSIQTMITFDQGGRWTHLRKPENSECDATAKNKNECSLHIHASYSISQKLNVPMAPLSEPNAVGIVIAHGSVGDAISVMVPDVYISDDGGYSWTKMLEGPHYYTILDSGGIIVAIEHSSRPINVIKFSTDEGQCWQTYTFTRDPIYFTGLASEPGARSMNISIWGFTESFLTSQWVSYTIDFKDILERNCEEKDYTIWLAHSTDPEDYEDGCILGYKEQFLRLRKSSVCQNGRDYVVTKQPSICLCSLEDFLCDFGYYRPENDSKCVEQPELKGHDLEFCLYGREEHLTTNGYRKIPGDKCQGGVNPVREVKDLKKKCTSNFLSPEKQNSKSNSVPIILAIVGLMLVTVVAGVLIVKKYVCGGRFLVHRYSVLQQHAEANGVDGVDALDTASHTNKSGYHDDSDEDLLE
Experimental: Compounds were screened at a final assay concentration of 1 μM and a final DMSO concentration was 1%. To achieve this, compounds were diluted in DMSO from 10 mM stocks to 100 μM (100×final assay concentration) then diluted 1:100 in running buffer which contained no DMSO to establish a final assay concentration of compound of 1 μM and a final DMSO concentration of 1% [DMSO].Compounds and DMSO were mixed by plate shaking at 1000 rpm for 60 seconds using a Bioshake instrument.

[2] = target: T1, Sortilin; test: Neurotensin Scintillation Proximity Assay
Experimental: Compound affinity was determined by measuring the displacement of [3H]-neurotensin binding to h-Sortilin in SPA format. Total volume of 40 μl in 50 mM HEPES pH 7.4 assay buffer containing 100 mM NaCl, 2.0 mM CaCl2, 0.1% BSA and 0.1% Tween-20. […] Dose-response evaluation of compounds was performed with 8 concentrations of drugs (covering 3 decades). IC50 values were calculated by nonlinear regression using the sigmoid concentration-response (variable slope) using CDD Vault software. All values reported are average of at least 2 determinations.

Row | Kd [1] | IC50 [2] | SMILES
1 | 102 nM | 460 nM | C[C@H](N[C@@H](CCC(C)(C)C)C(=O)O)c1cccc2c1ccn2C [US20250268854, Example 64]
2 | 56.7 nM | 200 nM | C[C@@H](N[C@@H](CCC(C)(C)C)C(=O)O)c1cccc2c1ccn2C [US20250268854, Example 63]
3 |  | 1490 nM | CC(C)(C)CC[C@H](NC1=NC2C=CC=CC2OC2C=CC=CC12)C(=O)O (some centres undefined) [US20250268854, Example 20]
4 | 310 nM | 430 nM | COC1C=C(CN[C@@H](CCC(C)(C)C)C(=O)O)C=NC1 (some centres undefined) [US20250268854, Example 144]
5 |  | 610 nM | CC(C)(C)CC[C@H](NCc1cc2ccccc2[nH]1)C(=O)O [US20250268854, Example 50]
6 | 492 nM | 720 nM | COc1cccc(CN[C@@H](CCC(C)(C)C)C(=O)O)c1F [US20250268854, Example 34]
7 |  | 840 nM | CC(C)(C)CC[C@H](NCC1=CC(Cl)CC(Cl)=C1)C(=O)O (some centres undefined) [US20250268854, Example 32]
8 | 26400 nM | 1600 nM | CC(C)(C)CC[C@H](NCc1ccncn1)C(=O)O [US20250268854, Example 136]

Row | SMILES | Kd [1] | IC50 [2]
9 | CC(C)(C)CC[C@H](NCc1cccc(C#N)c1)C(=O)O [US20250268854, Example 142] |  | 1260 nM
